Measured values: patent US20250044299A1, “PROTEIN STABILITY ASSAY” (Medicines Discovery Catapult Limited, priority 2021, published 2025)

Tests used:
p38α MAPK [1] = target: T1, p38α MAPK (Homo sapiens, UniProt Q16539); assay: Protein stability assay, HeLa p38α HiBiT cell lysate, HiBiT endpoint compared with AlphaLISA endpoint (Example 7); format: binding; set-up: lysate of HeLa p38α MAPK-linked HiBiT® endogenously tagged cells; endogenous in cells; host or cells: HeLa p38α HiBiT (genome-edited, endogenously tagged)
Target sequence in this assay (Q16539 2-360): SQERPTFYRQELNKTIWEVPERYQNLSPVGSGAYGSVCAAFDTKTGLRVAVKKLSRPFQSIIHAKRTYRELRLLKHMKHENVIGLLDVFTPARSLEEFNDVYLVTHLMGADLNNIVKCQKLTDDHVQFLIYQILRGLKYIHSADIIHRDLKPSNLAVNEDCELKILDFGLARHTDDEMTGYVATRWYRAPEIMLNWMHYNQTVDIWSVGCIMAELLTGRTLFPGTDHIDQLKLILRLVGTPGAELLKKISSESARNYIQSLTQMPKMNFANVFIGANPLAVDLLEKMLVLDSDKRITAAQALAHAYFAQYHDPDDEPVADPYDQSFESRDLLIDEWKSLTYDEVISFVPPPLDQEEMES
Procedure: Hela cells expressing the p38α target protein as a C-terminal fusion with a small peptide that includes the Promega HiBit® amino acid sequence were used as the starting material for lysate generation.
A solution containing 1:100 LgBiT® Protein and 1:100 Nano-Glo HiBiT® Lytic Substrate in PBS was created in a suitable volume. […] After incubation the plate was read on a luminescence detecting plate reader (3600 gain, 470-480 emission) to determine well signals.

p38α = target: T2, p38α (Homo sapiens, UniProt Q16539); assay: Chemical protein stability assay, single-well per test compound format, AlphaLISA, HEK293T cell lysate (Example 9); format: binding; conditions: 10 μM compound, 384-well single wells
T2 construct: endogenous in cells; host or cells: HEK293T
Procedure: For signal detection an antibody detection mix was made up no more than 20 minutes prior to use.

p38α MAPK [2] = target: T1, p38α MAPK; assay: Protein stability assay, AlphaLISA endpoint, HEK293T cell lysate, AEA titration (Example 1); format: binding; set-up: endogenous in cells; host or cells: HEK293T; conditions: compound at 10 or 100 μM, vs DMSO only
Procedure: Lysate from HEK293T cells grown in continuous culture at 5% CO2/37° C. in full growth media (RPMI (Gibco 11835-063), 10% FCS (Gibco F7524) 1% Glutamax (Gibco 35050-061)) was produced by growing cells in flasks to 85% confluence, removing from the surface using 3 ml Tryple Select (Gibco 12563011), centrifuging (1000 rpm for 4 minutes) to pellet, washing cell pellet two times in DPBS (Gibco 14190-094), resuspending in 1 ml of DPBS (Gibco 14190-094) containing 1× HALT Protease and Phosphatase inhibitor cocktail (Thermo Scientific 78440) per flask and lysing by three cycles of a liquid nitrogen freeze followed by thawing at room temperature. […]
To run the protein stability assay, an aliquot of HEK293T cell lysate at 4 μg/μl was thawed at room temperature and 2 μl added to each well of a 384-well White ProxiPlate (Perkin Elmer 6008280) containing […], 100 μM AMG-548 (Bio-Techne 3920/10) or an equivalent volume of DMSO dosed using the Labcyte ECHO. […] While incubating, fresh 100% AEA (Acetone (11443733), Ethanol (10437341) and Acetic Acid (10365020), all from Fisher Scientific in a ratio of 50:50:0.1) denaturant was made in a glass bottle ready for use. An aliquot of 100% AEA was diluted to 50% in DPBS (Gibco 14190-094) ready to produce titration curves of denaturant. […]
Target sequence in this assay (Q16539 whole entry): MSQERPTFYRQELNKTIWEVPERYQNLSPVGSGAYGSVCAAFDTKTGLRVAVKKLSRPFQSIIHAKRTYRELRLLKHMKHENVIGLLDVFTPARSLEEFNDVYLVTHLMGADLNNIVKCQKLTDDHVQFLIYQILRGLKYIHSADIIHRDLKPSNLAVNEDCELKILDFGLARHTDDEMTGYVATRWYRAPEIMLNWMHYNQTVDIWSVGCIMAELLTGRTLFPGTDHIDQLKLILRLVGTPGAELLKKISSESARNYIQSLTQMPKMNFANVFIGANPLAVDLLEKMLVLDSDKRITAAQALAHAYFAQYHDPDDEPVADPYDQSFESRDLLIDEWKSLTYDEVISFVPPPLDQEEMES

p38α MAPK [3] = target: T1, p38α MAPK; assay: Whole cell protein stability assay, AlphaLISA endpoint, intact HEK293T cells, EA titration (Example 4); format: cell-based; set-up: endogenous in cells; host or cells: HEK293T; conditions: 10 μM compound as printed, vs DMSO only
Procedure: HEK293T cells were grown in media (RPMI (Gibco 11835-063), 10% FCS (Gibco F7524) 1% Glutamax (Gibco 35050-061)) to approximately 85% confluence in a flask before harvesting from the surface using 3 ml Tryple Select (Gibco 12563011), washing cell pellet once in DPBS (Gibco 14190-094) and resuspending in media. Cells were counted and diluted in media to a density of 1×10^7 cell/ml.
To run the protein stability assay 5 μl of cells at a density of 1×10^7 cell/ml was added to each well of a 384-well White ProxiPlate ([…]) or an equivalent volume of DMSO dosed using the Labcyte ECHO. The contents of the plate were settled by a short pulse spin, sealed with a TopSeal-A Plus plate seal (Perkin Elmer 6050185) and the compound/lysate mixes incubated at ambient temperature for 30 minutes to 1 hour to allow potential target engagement by compound to occur. While incubating, fresh 100% EA (Ethanol (10437341) and Acetic Acid (10365020), all from Fisher Scientific in a ratio of 100:0.1) denaturant was made in a glass bottle ready for use. 100% EA was used to produce a titration curve of denaturant. […]
The dilution series to be added was made up as a 2× stock so that when 5 μl of denaturant was added to 5 μl lysate the final volume was 10 μl. […] After incubation the plate was read on a fluorescence detecting plate reader (Excitation 680 nm, Emission 615 nm) to determine well signals.
Target sequence in this assay (Q16539 whole entry): as above

T2 sequence (Q16539 whole entry): as above

stabilisation of p38α MAPK target protein (shift of denaturant titration curves) (p38α MAPK [1]; 100 μM compound, AEA and EA titration, HiBiT or AlphaLISA endpoints, vs DMSO only): clear shift between the titration curves
effect of compound on protein unfolding, concentration response curves (p38α MAPK [1]; HiBiT endpoint, fixed dose of denaturant): clear dose dependent effect
single-well signal vs minimum signal (22% EA, DMSO vehicle) (p38α): higher Maximum effect signal
SMILES: Cn1c(NC[C@@H](N)Cc2ccccc2)nc(-c2ccncc2)c(-c2ccc3ccccc3c2)c1=O [AMG-548]
stabilisation of p38α MAPK protein (shift in protein denaturation curves) (p38α MAPK [2]): stabilisation of p38α MAPK protein in a dose dependent manner
stabilisation of p38α MAPK protein (shift in protein denaturation curves) (p38α MAPK [3]): stabilisation of p38α MAPK protein compared to DMSO only treatment
